In brackets after ≈: the same amount, converted by molar mass. Where two headings read alike, the source gives them in different places.
How the values were obtained:
CRFK cells = test: Cytotoxicity assay of the compounds (CCK-8); assay type: cell-based, feline
Method: (§1) CRFK cells were seeded in 96-well cell culture plates at a density of 1 × 10^4 cells/well and incubated at 37 °C with 5% CO2 until the cell density reached more than 90%. Then, the medium was discarded, and the cells were washed twice with PBS. The compound to be tested was diluted in 10 successive gradients with MM at a 2-fold multiplicity (at the same time, there was a cell control group of 100 μL of MM, and 3 replicate wells were set for each concentration and group) and incubated at 37 °C with 5% CO2 for 72 h; then, the liquid in the plate was discarded and washed twice with PBS. Afterwards, the cytopathic ratios (CRs) of the compounds to cells were calculated according to the instructions of the Cell Counting Kit-8 (MCE, NJ, USA), and the CC50s of the compounds and the MNTCs at which the compounds could survive more than 90% of the cells were calculated using GraphPad Prism 10. In subsequent experiments, the final concentrations of the compounds after addition were the MNTCs of the compounds unless otherwise specified.

[1] = Cytotoxicity assay of the compounds (CCK-8); assay type: cell-based, feline; details: cat
Method: as §1

FIPV (BJ-01) = test: Inhibitory effects of compounds on FIPV-infected cells (compound and FIPV added simultaneously, CCK-8); assay type: cell-based, feline infectious peritonitis virus; details: 72 h; for inhibition of FIPV infection (MIR): compound at MNTC added with 100 TCID50 FIPV to CRFK cells
Method: According to previous methods, CRFK cells were seeded in 96-well cell culture plates at a density of 1 × 10^4 cells/well and cultured at 37 °C in 5% CO2 until the cell density was greater than 90%. After the cells were washed twice with PBS, 50 μL of test compound and 50 μL of FIPV were added to each well simultaneously (at the same time, a cell control group with only 100 μL of MM and a viral control group with only 100 μL of FIPV were added). There were 3 replicate wells for each compound and group. After 72 h of incubation at 37 °C and 5% CO2, the liquid in the plate was discarded, and the cells were washed twice with PBS. The MIR of the compounds to the virus was calculated according to the instructions of the Cell Counting Kit-8. Afterwards, the compounds with MIR > 50% were diluted to 8 concentrations with MM, and the above process was repeated. Then, the EC50 values of the compounds were calculated with GraphPad Prism 10.

[2] = CRFK cells, 72 h, CCK-8, read-out: CC50
[3] = CRFK cells, 72 h, CCK-8, concentration at which more than 90% of the cells survive

C[S+](C)[O-] [DMSO]
MNTC (CRFK cells): 0.83%

O=C(O)/C=C/c1ccc(O)c(O)c1 [Caffeic acid]
CC50 at 72 h [1]: 58.8 µg/mL (≈ 326 µM)
MNTC (maximum noncytotoxic concentration) (CRFK cells; cat, 72 h): 53.43 µg/mL

N#C[C@@]1(c2ccc3c(N)ncnn23)O[C@H](CO)[C@@H](O)[C@H]1O [GS-441524, reference compound]
EC50 (FIPV (BJ-01); Alphacoronavirus 1, FIPV in CRFK cells, gradient dilution, CCK-8): 0.205 µg/mL (≈ 0.704 µM)
inhibition of FIPV infection (MIR) (FIPV (BJ-01)): significantly more than the other compounds tested
CC50 at 72 h [1, 2]: 70.3 µg/mL (≈ 241 µM)
MNTC (maximum noncytotoxic concentration) (CRFK cells; [3]): 36.20 µg/mL

Cc1nc(C)c(C)nc1C.Cl [Ligustrazine hydrochloride]
inhibition of FIPV infection (MIR) (FIPV (BJ-01)): less than 20%
CC50 (CRFK cells; CRFK cells, 72 h, CCK-8): 2709 µg/mL
MNTC (maximum noncytotoxic concentration) (CRFK cells; [3]): 969.6 µg/mL

Cc1coc2c1C(=O)C(=O)c1c-2ccc2c1CCCC2(C)C [Tanshinone IIA]
inhibition of FIPV infection (MIR) (FIPV (BJ-01)): less than 20%
CC50 at 72 h [1, 2]: 807 µg/mL (≈ 2740 µM)
MNTC (maximum noncytotoxic concentration) (CRFK cells; [3]): 290.9 µg/mL

O=C1CCC[C@@H]2[C@H]3CCCN4CCC[C@@H](CN12)[C@@H]34 [Matrine]
inhibition of FIPV infection (MIR) (FIPV (BJ-01)): less than 20%
CC50 at 72 h [1, 2]: 1110 µg/mL (≈ 4470 µM)
MNTC (maximum noncytotoxic concentration) (CRFK cells; [3]): 699.8 µg/mL

Cc1cccc2c3c(ccc12)C1=C(C(=O)C3=O)[C@@H](C)CO1 [Dihydrotanshinone I]
inhibition of FIPV infection (MIR) (FIPV (BJ-01)): less than 20%
CC50 at 72 h [1]: 426 µg/mL (≈ 1530 µM)
MNTC (maximum noncytotoxic concentration) (CRFK cells; cat, 72 h): 246.4 µg/mL

O=c1c(-c2ccc(O)cc2)coc2c([C@@H]3O[C@H](CO)[C@@H](O)[C@H](O)[C@H]3O)c(O)ccc12 [Puerarin]
inhibition of FIPV infection (MIR) (FIPV (BJ-01)): less than 20%
CC50 at 72 h [1]: 209 µg/mL (≈ 501 µM)
MNTC (maximum noncytotoxic concentration) (CRFK cells; cat, 72 h): 83.77 µg/mL

CC1(C)[C@@H](O[C@H]2O[C@H](C(=O)O)[C@@H](O)[C@H](O)[C@H]2O[C@@H]2O[C@H](C(=O)O)[C@@H](O)[C@H](O)[C@H]2O)CC[C@]2(C)[C@H]3C(=O)C=C4[C@@H]5C[C@@](C)(C(=O)O)CC[C@]5(C)CC[C@@]4(C)[C@]3(C)CC[C@@H]12 [Glycyrrhizic acid]
CC50 at 72 h [1, 2]: 3320 µg/mL (≈ 4040 µM)
MNTC (maximum noncytotoxic concentration) (CRFK cells; [3]): 1412 µg/mL

O=C(/C=C/c1ccc(O)c(O)c1)O[C@@H]1C[C@](O)(C(=O)O)C[C@@H](O)[C@H]1O [Chlorogenic acid]
CC50 at 72 h [1]: 2170 µg/mL (≈ 6120 µM)
MNTC (maximum noncytotoxic concentration) (CRFK cells; cat, 72 h): 1605 µg/mL
